{"source": "patent US20220251153A1", "about": "“PEPTIDES FOR THE TREATMENT OF RENAL DISORDERS” (THE GEORGE WASHINGTON UNIVERSITY, priority 2019, published 2022)", "assay_type_in_all_cases": "in vivo, mouse", "key": {"[1]": {"test_system": "C57Bl/6 mice with unilateral ureter obstruction (UUO)", "experiment": "Sirius Red staining of kidney sections, UUO model of renal fibrosis", "conditions": "3 mg/kg subcutaneously the day before and daily for 14 days after UUO", "protocol": "The effect of ND-13 on renal disease was then assessed. Unilateral ureter obstruction (UUO) was chosen as a model of renal disease to determine if ND-13 has a protective effect. The UUO model is an known model of human and animal kidney disease, which mimics the effects of chronic kidney disease and diabetes (i.e., diabetic nephropathy), due to its capability of generating a progressive renal (tubule interstitial) fibrosis and has advantages of good reproducibility, a short time course and the presence of a contralateral kidney as control.\nC57Bl/6 control mice as well as DJ-1 knockout mice were subjected to UUO in order to examine mechanisms involved in renal tubule interstitial fibrosis in vivo and to determine if ND-13 has a protective effect against renal disease. DJ-1 knockout mice used herein were from the original F2 hybrid strain (129/SvXC57BL/6J) that contained the mutated DJ-1 allele (DJ-1−/−) backcrossed to wild-type C57BL/6J for >20 generations and genotyped. […]\nRenal interstitial fibrosis was assessed in the mice by Sirius Red staining. […] Sirius Red staining was examined with an Olympus BX-41 microscope and the amount of collagen in the kidney was quantified by ImageJ software. Two images of about 70% of the renal cortical sections were used in the quantification. […]"}, "[2]": {"test_system": "DJ-1 knockout mice with unilateral ureter obstruction (UUO)", "experiment": "Urinary NGAL ELISA after UUO", "conditions": "urine 14 days after UUO, 3 mg/kg subcutaneously daily", "excerpt": "(§1) C57Bl/6 control mice as well as DJ-1 knockout mice were subjected to UUO in order to examine mechanisms involved in renal tubule interstitial fibrosis in vivo and to determine if ND-13 has a protective effect against renal disease. DJ-1 knockout mice used herein were from the original F2 hybrid strain (129/SvXC57BL/6J) that contained the mutated DJ-1 allele (DJ-1−/−) backcrossed to wild-type C57BL/6J for >20 generations and genotyped. Prior to UUO, ND-13 peptide and scrambled control peptide (3 mg/kg diluted in […] of saline) were injected subcutaneously to C57Bl/6 and DJ-1 knockout mice the day before performing the complete UUO. For UUO surgery, the procedure was performed as follows. Briefly, mice were anesthetized with isofluorane (3-5% for induction and 1-3% for maintenance) and divided into two experimental groups: the UUO group and the sham operation group. In the UUO group, mice were shaved on the left side of the abdomen, a vertical incision was made through the skin with a scalpel and the skin was retracted. A second incision was made through the peritoneum to expose the kidney. The left ureter was ligated twice 15 mm below the renal pelvis with surgical silk and the ureter was then severed between the two ligatures. Then, the ligated kidney was placed gently back into its correct anatomical position and sterile saline was added to replenish loss of fluid. […]"}, "[3]": {"test_system": "C57Bl/6 mice with unilateral ureter obstruction (UUO)", "experiment": "Urinary NGAL ELISA after UUO", "conditions": "urine 14 days after UUO, 3 mg/kg subcutaneously daily", "excerpt": "as §1"}, "[4]": {"test_system": "TNF-alpha, IL-6, Col1a1 and TGF-beta mRNA in kidneys of C57Bl/6 mice with UUO", "experiment": "qRT-PCR of renal inflammatory and fibrotic marker mRNA after UUO", "conditions": "14 days after UUO, normalized by GAPDH", "excerpt": "(§2) C57Bl/6 control mice as well as DJ-1 knockout mice were subjected to UUO in order to examine mechanisms involved in renal tubule interstitial fibrosis in vivo and to determine if ND-13 has a protective effect against renal disease. DJ-1 knockout mice used herein were from the original F2 hybrid strain (129/SvXC57BL/6J) that contained the mutated DJ-1 allele (DJ-1−/−) backcrossed to wild-type C57BL/6J for >20 generations and genotyped. Prior to UUO, ND-13 peptide and scrambled control peptide (3 mg/kg diluted in […] of saline) were injected subcutaneously to C57Bl/6 and DJ-1 knockout mice the day before performing the complete UUO. For UUO surgery, the procedure was performed as follows. Briefly, mice were anesthetized with isofluorane (3-5% for induction and 1-3% for maintenance) and divided into two experimental groups: the UUO group and the sham operation group. In the UUO group, mice were shaved on the left side of the abdomen, a vertical incision was made through the skin with a scalpel and the skin was retracted. A second incision was made through the peritoneum to expose the kidney. The left ureter was ligated twice 15 mm below the renal pelvis with surgical silk and the ureter was then severed between the two ligatures. Then, the ligated kidney was placed gently back into its correct anatomical position and sterile saline was added to replenish loss of fluid. The incisions were sutured and mice were individually caged. Buprenorphine was used as an analgesic. 24 hours after UUO surgery, the ND-13 peptide and scrambled control peptide (3 mg/kg diluted in […] of saline) were injected subcutaneously to C57Bl/6 and DJ-1 knockout mice and then injected every day thereafter for 14 days following UUO. Untreated normal C57Bl/6 mice served as a control. After 14 days, urine was collected and the mice were sacrificed. Tissues, including the kidneys, were obtained for analyses.\n(§3) Next, the effect of ND-13 on mRNA expression of inflammatory and fibrotic markers in the kidneys of mice with UUO was tested. Briefly, RNA was extracted from whole renal tissue harvested from ND-13-treated C57Bl/6 and DJ-1 knockout mice 14 days after the UUO procedure. RNA extracted from untreated C57Bl/6 mice served as the control. The extracted RNA was subjected to qRT-PCR using standard methods. The mRNA expression of TNF-alpha (tumor necrosis factor alpha), IL-6 (Interleukin 6), Col1a1 (collagen, type I, alpha 1) and TGF-beta (transforming growth factor beta) were quantified by qRT-PCR in mice from each group. Data were normalized by expression of the house keeping gene GAPDH (glyceraldehyde 3-phosphate dehydrogenase). […] The increased renal expressions of TNF alpha and IL-6, and TGF-beta associated with UUO was decreased by ND-13 in both C57Bl/6 mice (FIGS. 3A, 3B, and 3D) and DJ-1 knockout mice (FIGS. 3E, 3F, and […])."}, "[5]": {"test_system": "TNF-alpha, IL-6, Col1a1 and TGF-beta mRNA in kidneys of DJ-1 knockout mice with UUO", "experiment": "qRT-PCR of renal inflammatory and fibrotic marker mRNA after UUO", "conditions": "14 days after UUO, normalized by GAPDH", "excerpt": "as §2, §3"}}, "data": [{"sequence": "YGRKKRRKGAEEMETVIPVD [ND-13]", "values": [{"measurement": "renal interstitial fibrosis (collagen, Sirius Red staining)", "setting": "[1]", "result": "prevented fibrosis"}, {"measurement": "urinary NGAL (marker of renal damage)", "setting": "[2]", "result": "not protected"}, {"measurement": "urinary NGAL (marker of renal damage)", "setting": "[3]", "result": "decreased urinary NGAL to control levels"}, {"measurement": "renal mRNA expression of Col1a1", "setting": "[4]", "result": "decreased"}, {"measurement": "renal mRNA expression of IL-6", "setting": "[4]", "result": "decreased"}, {"measurement": "renal mRNA expression of TGF-beta", "setting": "[4]", "result": "decreased"}, {"measurement": "renal mRNA expression of TNF-alpha", "setting": "[4]", "result": "decreased"}, {"measurement": "renal mRNA expression of Col1a1", "setting": "[5]", "result": "not DJ-1 knockout mice"}, {"measurement": "renal mRNA expression of IL-6", "setting": "[5]", "result": "decreased"}, {"measurement": "renal mRNA expression of TGF-beta", "setting": "[5]", "result": "decreased"}, {"measurement": "renal mRNA expression of TNF-alpha", "setting": "[5]", "result": "decreased"}]}]}
